Data reported in patent US6649654B1, “Methods for identifying and using IKK inhibitors” (The Regents of the University of California, priority 1999, dated 2003).
“Also recorded” adds a separate entry of the source.

Tests used:
Sp1 = biological target: T1, Sp1 (Homo sapiens, UniProt P08047); assay: Sp1 DNA binding activity; format: cell-based
T1 construct: endogenous in cells; host or cells: Jurkat (PGA1); cells of the 15dPGJ2 experiment not clearly stated

IKK [1] = biological target: T2, IKK (Homo sapiens, UniProt O14920+O15111); assay: In vitro kinase assay of IKK immunoprecipitated from TNFα-stimulated HeLa cells; format: biochemical; parameters: Endogenous IKK was immunoprecipitated from TNFα-stimulated HeLa cells; endogenous in cells; host or cells: HeLa; conditions: for IC50: IKK immunoprecipitated from TNFα-stimulated HeLa cells
Procedure: (§1) Cell lysates were incubated with anti-IKKα (Pharmingen), anti-HA (12CA5; Pharmingen), anti-JNK1 (333.8; Pharmingen), or anti-p38 (New England Biolabs) for 2 hours. Then, 15 μl protein A-Sepharose (Sigma) were added and the mixture was allowed to incubate for 1 hour. After extensive washing, kinase assays were performed as known in the art (See e.g., DiDonato et al., Nature 388:548-554 [1997]). Endogenous IKK, HA-tagged IKKα, endogenous JNK1, and p38 activities were determined with GST-1κBα(1-54), GST-c-Jun(1-79), and GST-ATF2 as substrates.
Endogenous IKK was immunoprecipitated from TNFα-stimulated HeLa cells and the kinase activity determined in the presence of different concentrations of PGA1 (the results of which are shown in FIG. 2B) or 15dPGJ2 (the results of which are shown in FIG. 2C).
(§2) In this Example, experiments to determined the effects of arachidonic acid and its metabolites on IKK activity in vivo and in vitro are described. HeLa cells were treated with 50 μM AA, PGA1, PGB2, PGD2, PGE1, PGE2, PGF1α, or thromboxane B2 (T×B2), 1 μM LTB4, or 5 μM 15dPGJ2, for 2 hours in RPMI containing 10% FCS, and stimulated with TNFα for 10 minutes. Cell lysates were then assayed for endogenous IKK activity and recovery. In this FIGURE, “control” indicates unstimulated cells, and “-” indicates treatment with diluent alone. In addition, IKK was immunoprecipitated from TNFα-stimulated HeLA cells and incubated in vitro with 100 μM AA, PGA1, PGB2, PGD2, PGE1, PGE2, PGF1α, or T×B2, 2 μM LTB4 or 10 μM 15dPGJ2, followed by kinase assay and immunoblot analysis. In this FIGURE, “control” indicates to unstimulated cells, and “-”indicates 1% ethanol.
Many protein kinase inhibitors compete with binding of ATP, but preincubation in the presence of increasing concentrations of ATP had no effect on inhibition of IKKβ by 15dPGJ2, as indicated in FIG. 6A. […] The pellets were rinsed and kinase activity was measured.

IKK [2] = biological target: T2, IKK; assay: Endogenous IKK activity (kinase assay) in treated, stimulated HeLa cells; format: cell-based; parameters: Endogenous IKK was immunoprecipitated from TNFα-stimulated HeLa cells; endogenous in cells; host or cells: HeLa; conditions: for effect on IKK activity: HeLa cells stimulated with TNFα (PGA1: IL-1 or TNFα)
Procedure: Cells used in the experiments described herein were cultured in either RPMI 1640 (Jurkat cells) or DMEM (HeLa and COS cells), supplemented with 10% FBS and antibiotics. Cells were stimulated with either 25 ng/ml TPA, 20 ng/ml recombinant TNFα, or 10 ng/ml interleukin 1β (Sigma). PGA1, 15dPGJ2, T×B2, LTB4, AA and other PGs (Cayman) dissolved in ethanol were used as well, as known in the art (See e.g., Rossi et al., 94:746-750 [1997]). Controls received equal amounts of ethanol. Transfections were performed using Lipofectamine Plus (GIBCO) for HeLa and COS cells and DEAE-dextran (Sigma) for Jurkat cells. Xpress-tagged NIK, Xpress-tagged MEKK1, HA-tagged IKKα, and HA-tagged IKKβ were also used (See e.g., Zandi et al., Science 281:1360-1363 [1998]; and Delhase et al., Science 284:309-313 [1999]). COX2 and cPLA2 expression vectors were obtained from Dr. L. Feng (See also, Hirose et al., J. Am. Soc. Nephrol., 9:408-416 [1998]). PGD synthase was cloned from HT29 colon carcinoma cell line cDNA by PCR and subcloned into a pCDNA3 vector. Cells were lysed in buffer B (50 mM Tris-HCl, pH 7.5, 400 mM NaCl, 1 mM EDTA, 1 mM EGTA, 1% Triton, 0.5% NP-40, 10% glycerol, and supplemented with 20 mM β-glycerophosphate, 10 mM PNPP, […] 1 mM PMSF, 20 μg/ml aprotinin, 2.5 μg/ml leupeptin, 8.3 μg/ml bestatin, 1.7 μg/ml pepstatin, and 2 mM DTT).
as §1, §2

T1 sequence (P08047 whole entry): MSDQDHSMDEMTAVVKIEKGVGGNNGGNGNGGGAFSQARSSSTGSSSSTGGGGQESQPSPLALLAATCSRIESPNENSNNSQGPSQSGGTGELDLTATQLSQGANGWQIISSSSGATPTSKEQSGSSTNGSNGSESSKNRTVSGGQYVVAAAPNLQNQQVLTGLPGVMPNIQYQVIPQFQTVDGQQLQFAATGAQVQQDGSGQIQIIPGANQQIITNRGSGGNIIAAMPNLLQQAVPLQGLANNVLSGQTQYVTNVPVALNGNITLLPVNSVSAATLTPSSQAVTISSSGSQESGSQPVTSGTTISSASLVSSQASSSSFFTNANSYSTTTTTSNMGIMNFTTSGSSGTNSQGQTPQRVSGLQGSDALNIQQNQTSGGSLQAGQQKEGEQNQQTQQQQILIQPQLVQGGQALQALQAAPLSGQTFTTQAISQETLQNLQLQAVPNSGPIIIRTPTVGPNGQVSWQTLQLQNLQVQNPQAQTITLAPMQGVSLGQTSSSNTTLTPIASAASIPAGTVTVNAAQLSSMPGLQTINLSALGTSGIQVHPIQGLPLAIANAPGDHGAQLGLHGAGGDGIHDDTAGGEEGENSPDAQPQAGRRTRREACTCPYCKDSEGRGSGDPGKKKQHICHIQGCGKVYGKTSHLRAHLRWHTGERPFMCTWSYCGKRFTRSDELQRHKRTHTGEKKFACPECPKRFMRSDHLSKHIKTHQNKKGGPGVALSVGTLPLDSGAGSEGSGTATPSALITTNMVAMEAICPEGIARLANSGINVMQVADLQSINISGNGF
T2 sequence (O14920 whole entry): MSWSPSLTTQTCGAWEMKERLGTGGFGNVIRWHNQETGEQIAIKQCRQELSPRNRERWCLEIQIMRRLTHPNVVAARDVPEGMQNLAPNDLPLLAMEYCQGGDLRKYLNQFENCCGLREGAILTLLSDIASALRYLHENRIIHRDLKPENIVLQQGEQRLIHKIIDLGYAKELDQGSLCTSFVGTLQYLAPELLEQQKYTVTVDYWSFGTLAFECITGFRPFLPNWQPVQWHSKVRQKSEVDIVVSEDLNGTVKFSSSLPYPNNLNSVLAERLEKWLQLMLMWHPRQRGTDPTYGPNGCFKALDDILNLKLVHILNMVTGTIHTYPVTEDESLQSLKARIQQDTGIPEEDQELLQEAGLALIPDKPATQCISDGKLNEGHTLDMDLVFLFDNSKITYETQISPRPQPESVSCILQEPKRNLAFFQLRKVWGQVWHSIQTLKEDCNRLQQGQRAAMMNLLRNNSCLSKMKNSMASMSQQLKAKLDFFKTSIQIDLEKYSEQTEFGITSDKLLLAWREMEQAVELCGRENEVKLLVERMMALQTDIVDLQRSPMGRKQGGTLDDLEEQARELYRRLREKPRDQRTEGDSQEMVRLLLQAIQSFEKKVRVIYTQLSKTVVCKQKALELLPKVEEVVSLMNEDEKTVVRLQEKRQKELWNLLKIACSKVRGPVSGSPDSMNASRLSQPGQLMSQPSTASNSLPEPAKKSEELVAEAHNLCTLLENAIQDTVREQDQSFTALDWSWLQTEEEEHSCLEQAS
T2 sequence (O15111 whole entry): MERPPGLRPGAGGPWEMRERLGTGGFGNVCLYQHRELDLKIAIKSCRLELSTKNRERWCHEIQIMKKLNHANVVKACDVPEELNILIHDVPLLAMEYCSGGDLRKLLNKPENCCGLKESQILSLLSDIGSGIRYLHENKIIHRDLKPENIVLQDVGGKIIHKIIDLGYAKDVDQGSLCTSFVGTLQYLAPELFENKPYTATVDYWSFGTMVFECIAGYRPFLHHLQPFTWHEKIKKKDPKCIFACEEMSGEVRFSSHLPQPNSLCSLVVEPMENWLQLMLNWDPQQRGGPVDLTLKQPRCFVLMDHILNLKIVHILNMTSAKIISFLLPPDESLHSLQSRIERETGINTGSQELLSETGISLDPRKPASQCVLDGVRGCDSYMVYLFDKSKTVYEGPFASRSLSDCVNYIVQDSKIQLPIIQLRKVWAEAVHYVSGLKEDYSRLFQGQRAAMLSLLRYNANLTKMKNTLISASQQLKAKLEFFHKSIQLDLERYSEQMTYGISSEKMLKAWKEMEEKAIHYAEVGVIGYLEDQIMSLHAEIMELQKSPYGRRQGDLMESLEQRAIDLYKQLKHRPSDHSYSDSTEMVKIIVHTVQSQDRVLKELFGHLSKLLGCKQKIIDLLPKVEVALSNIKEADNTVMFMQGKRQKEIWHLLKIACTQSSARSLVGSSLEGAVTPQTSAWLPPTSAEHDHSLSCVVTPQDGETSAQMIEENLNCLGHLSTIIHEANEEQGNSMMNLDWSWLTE
T2 sequence (Q9Y6K9 whole entry partner): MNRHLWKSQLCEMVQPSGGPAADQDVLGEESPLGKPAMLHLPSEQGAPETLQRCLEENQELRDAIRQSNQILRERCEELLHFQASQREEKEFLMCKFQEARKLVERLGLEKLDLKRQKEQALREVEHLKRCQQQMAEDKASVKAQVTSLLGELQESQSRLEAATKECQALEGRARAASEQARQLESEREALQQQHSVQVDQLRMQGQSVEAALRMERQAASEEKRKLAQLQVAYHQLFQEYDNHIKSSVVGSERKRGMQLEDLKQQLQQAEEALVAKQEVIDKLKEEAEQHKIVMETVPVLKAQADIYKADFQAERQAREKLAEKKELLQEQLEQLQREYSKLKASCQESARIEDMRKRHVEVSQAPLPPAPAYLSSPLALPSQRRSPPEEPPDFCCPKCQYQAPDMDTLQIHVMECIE

Compound	effect on Sp1 DNA-binding activity (Sp1; 15dPGJ2, data not shown)	effect of pre-incubation with increasing ATP on inhibition (ATP competition) (IKK [1]; 15dPGJ2 0-30 μM with or without ATP, 4° C., 30 minutes)	IC50 (IKK [1]) [µM]	effect on IKK activity (IKK [2])	IC50 (IKK [2]; HeLa cells, TNFα, read-out: half-maximal inhibition of IKK activity) [µM]	effect on Sp1 DNA binding (Sp1; PGA1 (120 μM), FIG. 1A)
CCCCC/C=C/C=C1/C(=O)C=C[C@@H]1C/C=C\CCCC(=O)O [15dPGJ2, 15-deoxy-Δ^12-14-PGJ2]	did not inhibit	had no effect; also recorded: not a competitive inhibitor of ATP binding	7.08	inhibited	5.08	
CCCCC[C@H](O)/C=C/[C@H]1C=CC(=O)C1CCCCCCC(=O)O (some centres unmarked) [PGA1, prostaglandin A1]			79.8	inhibited		did not inhibit; also recorded: No effects
